Laboratory results: patent US20230165970A1, “COMPOSITIONS AND METHODS FOR THE TREATMENT OF BACTERIAL INFECTIONS” (priority 2017, published 2023)
In brackets after ≈: the same amount, converted by molar mass. *1 amine or outer side, *2 acyl side, *3 side chain or, on linkers, in order; H or OH if unused. Where a SMILES comes first, the peptide text is derived from it. Bridges are numbered along the chain shown (N, C = ends). Roman numbers before positions name the chains, in order. [ ]: non-standard residue; d: D form. The star is where a group is joined. X5 = C#CCOCCOCCOCCOCCN1C[C@@H](C(=O)[*:1])[C@H](C(=O)[*:2])C1; X2 = O=C([C@@H](N[*:1])[C@H](O)CCC(F)(F)F)[*:2]; Propargyl(OCH2CH2)4CO = C#CCOCCOCCOCCOCCC(=O)*; X3 = CCCCC[C@@H](O)[C@H](N[*:1])C(=O)[*:2]; azaDab = NCCN(N[*:1])C(=O)[*:2]; Aoc(2) = CCCCCC[C@H](N)C(=O)O; hLeu = CC(C)CC[C@H](N)C(=O)O; Nle = CCCC[C@H](N)C(=O)O; Dab = NCC[C@H](N)C(=O)O; azaGly = NNC(=O)O

How the values were obtained:
A. baumannii AB5075 = assay: Murine pneumonia model vs. A. baumannii AB5075 (survival); format: in vivo, C57BI/6J mice; details: 1×10^8 CFU; for protection against lethal challenge (survival monitored 5 days): 5 mg/kg IV twice at t=+1 h and +4 h, n=5 (FIG. 118)
Method: (§1) The murine pneumonia model was adapted from Lin et al., 2015 (PMID: 26288841). A. baumannii AB5075 was grown to log-phase in LB at 37° C., 200 rpm shaking. Bacteria were washed once with PBS via centrifugation at 4,000 rpm. Bacteria were adjusted to the desired concentration in PBS.
Prior to infection, 8-week-old female C57BI/6J mice (Jackson Labs) were anesthetized with 100 mg/kg ketamine and 10 mg/kg xylazine. Using an otoscope, mice were infected non-invasively directly into the trachea.
Mice were infected with 5×10^7 CFU in 30 μL of PBS. Mice were treated intraperitoneally with different doses of conjugate 23 or hIgG1 (50 mpk) at t=−12 h pre-infection and t=+1 h post-infection or with colistin (10 mpk) or PBS at t=+1 h, 5 h, 24 h, 36 h, 48 h and 60 h post-infection.
Survival of mice (n=5 per group) was monitored for 5 days. […] Colistin was used as positive control resulting in 80% protection.
as §1, with “PBS. Prior to infection, 8-week-old female C57BI/6J mice (Jackson Labs) were anesthetized with 100 mg/kg ketamine and 10 mg/kg xylazine. Using an otoscope, mice were infected non-invasively directly into the trachea.” for “PBS.”
Mice were infected with 5×10^7 CFU in 30 μL of PBS. Mice were treated intraperitoneally with conjugate 34 or hIgG1 (50 mpk) at t=−12 h pre-infection.
Survival of mice (n=4 per group) was monitored for 5 days. A single dose of ADC conjugate 34 was protective (75% survival) against a lethal challenge with A. baumannii AB5075.
The murine pneumonia model was adapted from Lin et al., 2015 (PMID: 26288841). A. baumannii AB5075 was grown to log-phase in LB at 37° C., 200 rpm shaking. Bacteria were washed once with PBS via centrifugation at 4,000 rpm. Bacteria were adjusted to desired concentration in PBS. […]
The survival (n=5 per group) was monitored twice daily for 5 days. […]

Ec 25922 64X-1 (COL^R) = format: cell-based, Escherichia coli; details: media CA-MHB
Ec AR0349 (mcr-1, COL^R) = format: cell-based, Escherichia coli; details: media CA-MHB

Row | Compound | protection against lethal challenge (survival monitored 5 days) (A. baumannii AB5075) | MIC (Ec 25922 64X-1 (COL^R)) | MIC (Ec AR0349 (mcr-1, COL^R)) | survival (monitored 5 days) (A. baumannii AB5075; 10 mg/kg IV twice at t=+1 h and +4 h, n=5 (FIG. 119))
1 | C#CCOCCOCCOCCOCCC(=O)N[C@@H](CCC(C)C)C(=O)N[C@@H](CCN)C(=O)N[C@H](C(=O)NNC(=O)N[C@H]1CCNC(=O)[C@H]([C@@H](C)O)NC(=O)[C@H](CCN)NC(=O)[C@H](CCN)NC(=O)[C@H](CC(C)C)NC(=O)[C@@H](Cc2ccccc2)NC(=O)[C@H](CCN)NC1=O)[C@H](O)CCCCC [Int-116] ({Propargyl(OCH2CH2)4CO}-[hLeu][Dab][X3][azaGly][Dab][Dab][dF]L[Dab][Dab]T; lactam 5-C) | fully protective | 64 µg/mL (≈ 44.2 µM) | 8 µg/mL (≈ 5.53 µM) | –
2 | C#CCOCCOCCOCCOCCC(=O)N[C@@H](CCCCCC)C(=O)N[C@@H](CCN)C(=O)N[C@H](C(=O)N[C@@H](CCN)C(=O)N[C@H]1CCNC(=O)[C@H]([C@@H](C)O)NC(=O)[C@H](CCN)NC(=O)[C@H](CCN)NC(=O)[C@H](CC(C)C)NC(=O)[C@@H](Cc2ccccc2)NC(=O)[C@H](CCN)NC1=O)[C@H](O)CCC(F)(F)F [Int-118] ({Propargyl(OCH2CH2)4CO}-[Aoc(2)][Dab][X2][Dab][Dab][Dab][dF]L[Dab][Dab]T; lactam 5-C) | 40% | – | – | –
3 | C#CCOCCOCCOCCOCCN1C[C@@H](C(=O)N[C@@H](CCCC)C(=O)N[C@@H](CCN)C(=O)N[C@H](C(=O)NNC(=O)N[C@H]2CCNC(=O)[C@H]([C@@H](C)O)NC(=O)[C@H](CCN)NC(=O)[C@H](CCN)NC(=O)[C@H](CC(C)C)NC(=O)[C@@H](Cc3ccccc3)NC(=O)[C@H](CCN)NC2=O)[C@@H](C)O)[C@H](C(=O)N[C@@H](CCCC)C(=O)N[C@@H](CCN)C(=O)N[C@H](C(=O)NNC(=O)N[C@H]2CCNC(=O)[C@H]([C@@H](C)O)NC(=O)[C@H](CCN)NC(=O)[C@H](CCN)NC(=O)[C@H](CC(C)C)NC(=O)[C@@H](Cc3ccccc3)NC(=O)[C@H](CCN)NC2=O)[C@@H](C)O)C1 [Int-120] (I: [Nle][Dab]T[azaGly][Dab][Dab][dF]L[Dab][Dab]T / II: [Nle][Dab]T[azaGly][Dab][Dab][dF]L[Dab][Dab]T; lactam I:5-I:C, II:5-II:C; linker I:N-II:N via X5) | – | 2 µg/mL (≈ 0.767 µM) | 2 µg/mL (≈ 0.767 µM) | –
4 | C#CCOCCOCCOCCOCCC(=O)N[C@@H](CCC(C)C)C(=O)N[C@@H](CCN)C(=O)N[C@H](C(=O)NN(CCN)C(=O)N[C@H]1CCNC(=O)[C@H]([C@@H](C)O)NC(=O)[C@H](CCN)NC(=O)[C@H](CCN)NC(=O)[C@H](CC(C)C)NC(=O)[C@@H](Cc2ccccc2)NC(=O)[C@H](CCN)NC1=O)[C@@H](C)O [Int-127] ({Propargyl(OCH2CH2)4CO}-[hLeu][Dab]T[azaDab][Dab][Dab][dF]L[Dab][Dab]T; lactam 5-C) | – | 64 µg/mL (≈ 44.6 µM) | 8 µg/mL (≈ 5.58 µM) | –
5 | C#CCOCCOCCOCCOCCC(=O)N[C@@H](CCCCCC)C(=O)N[C@@H](CCN)C(=O)N[C@H](C(=O)NN(CCN)C(=O)N[C@H]1CCNC(=O)[C@H]([C@@H](C)O)NC(=O)[C@H](CCN)NC(=O)[C@H](CCN)NC(=O)[C@H](CC(C)C)NC(=O)[C@@H](Cc2ccccc2)NC(=O)[C@H](CCN)NC1=O)[C@@H](C)O [Int-129] ({Propargyl(OCH2CH2)4CO}-[Aoc(2)][Dab]T[azaDab][Dab][Dab][dF]L[Dab][Dab]T; lactam 5-C) | – | – | – | 60%
